Values of other authors, collected in patent US6645508B1, “Stable L-ascorbic acid composition” (priority 1999, dated 2003).

Tested on: human skin fibroblasts
Details: at concentrations equivalent to L-Ascorbic acid

Q: For CCCCCCCCCCCCCCCC(=O)OC[C@H](O)[C@H]1OC(=O)C(O)=C1O [ascorbyl palmitate], which “effect on human skin fibroblasts” value is on record?
A: killed human skin fibroblasts
